{
  "source": "paper PMC11224403",
  "about": "“Des-acyl ghrelin reduces alcohol intake and alcohol-induced reward in rodents” (Translational Psychiatry, 2024)",
  "key": {"male and female rats": {"test_system": "male and female rats", "experiment": "Locomotor activity test, DAG per se, rats", "format": "in vivo, Rcc Han Wistar rats", "conditions": "DAG 0.5, 1.0 or 2.0 mg/kg, 60 min recording, n = 5–6 per group", "description": "Male and female Rcc Han Wistar rats (8–12 weeks old at arrival; Envigo, Horst, Netherlands) were used for the alcohol drinking and locomotor activity experiments as they drink alcohol to intoxicating levels. For in vivo microdialysis studies male Wistar rats (Charles River, Calco, Italy) were used as they display robust dopamine levels in NAc shell after alcohol injection. […] All rodents were allowed to habituate to the animal facility at least one week before they entered an experiment. During housing (20 °C with 50% humidity) the rodents had free access to water and standard chow (Teklad Rodent Diet; Envigo, Madison, WI, USA). […] The sample sizes of each experiment were based on previous experience in which statistical significance has been detected. The person who conducted the experiments, and analyzed the collected data was aware of the treatment allocation. […]\nLocomotor activity tests were conducted in ventilated and dim-lit (4 lux) open field arenas (420 × 420 × 200 mm; Med Associates Inc; Georgia, Vermont, USA). Infra-red beams detected distance traveled, number of jumps, vertical counts, average velocity, stereotypic counts, number of inner zone entries, and time spent in the inner/outer zones of each animal. […]\nThe obtained data are normally distributed and with equal variance. The data from drinking experiments were analyzed by unpaired t-test or repeated two-way ANOVA. […]"}, "[1]": {"test_system": "feeding and ghrelin-induced responses", "conditions": "cited from earlier work", "description": "DAG can be found in the plasma after ghrelin is secreted from the gastrointestinal tract and subsequently deacetylated in the serum. […] Based on these findings and given that ghrelin has a prominent role in mediating alcohol-related responses, we hypothesize that DAG decreases such effects in rodents."}, "CB1 receptor": {"test_system": "CB1 receptor", "experiment": "Aquoscreen receptor activity assay, CB1", "format": "cell-based, human", "conditions": "50 µM DAG in results (8.3 µM in methods); luminescence, triplicates"}, "male mice": {"test_system": "male mice", "experiment": "Locomotor activity test, alcohol-induced stimulation and DAG per se, mice", "format": "in vivo, NMRI mice", "description": "Male and female Rcc Han Wistar rats (8–12 weeks old at arrival; Envigo, Horst, Netherlands) were used for the alcohol drinking and locomotor activity experiments as they drink alcohol to intoxicating levels. For in vivo microdialysis studies male Wistar rats (Charles River, Calco, Italy) were used as they display robust dopamine levels in NAc shell after alcohol injection. […] All rodents were allowed to habituate to the animal facility at least one week before they entered an experiment. […] The sample sizes of each experiment were based on previous experience in which statistical significance has been detected. The person who conducted the experiments, and analyzed the collected data was aware of the treatment allocation. Only preset exclusion criteria were used when analyzing the data obtained in attempts to exclude confounding factors in analyzing data. In the alcohol drinking experiments leaking bottles and low alcohol consumption (<3.0 g/kg for males; <3.5 g/kg for females) were preset exclusion criteria. The preset exclusion criterion in the ex vivo HPLC-EC, ELISA, and recombinant cell line experiments was contamination of the sample. Misplaced probes, technical difficulties, and damages to the surgery area were preset exclusion criteria for the in vivo microdialysis experiment. Intra-cage male aggression was the preset exclusion criterion for the locomotor activity and CPP experiments. To minimize tentative confounding factors, the order of treatments was stratified, with treatments being mixed for each animal cage and for each apparatus used as well as balancing the alcohol intake between future treatment groups.\nAlcohol was in the behavioral and neurochemical tests injected (intraperitoneally, IP) 5 min before the test.\nLocomotor activity tests were conducted in ventilated and dim-lit (4 lux) open field arenas (420 × 420 × 200 mm; Med Associates Inc; Georgia, Vermont, USA). Infra-red beams detected distance traveled, number of jumps, vertical counts, average velocity, stereotypic counts, number of inner zone entries, and time spent in the inner/outer zones of each animal.\nIn the first test, after 60 min of habituation, male (n = 24) or female (n = 24) rats were injected with vehicle or DAG (0.5, 1.0, or 2.0 mg/kg). 15 min later the activity was monitored for another 60 min. In the second locomotor activity experiment, male mice (n = 32) were allowed to habituate for 60 min. After that, they were injected with vehicle or DAG (0.25, 0.5, or 1.0 mg/kg). After 15 min the activity was monitored for another 60 min.\nTherefore, male mice were (n = 32) injected with DAG (1.0 mg/kg) or vehicle 15 min before alcohol or vehicle. The activity registration started 5 min later and was recorded for an additional 60 min. Identical locomotor activity experiments were conducted in new male mice (n = 32), where a lower dose of DAG (0.5 mg/kg) was combined with alcohol.\nThe data from drinking experiments were analyzed by unpaired t-test or repeated two-way ANOVA. A two-tailed unpaired t-test analyzed the ELISA, ex vivo HPLC-EC, and cFOS data. In addition, the Pearson test correlated the serum levels and the mean values of alcohol intake in rats. A one-way ANOVA with Bonferroni post hoc tests and unpaired t-test analyzed the locomotor activity and CPP data, respectively. The in vivo microdialysis experiments were evaluated by a repeated two-way ANOVA followed by the Bonferroni post hoc test."}},
  "data": [
    {"substance": "des-acyl ghrelin (GSSFLSPEHQRVQQRKESKKPPAKLQPR; Ghrelin-28 non-acylated; UniProt Q9UBU3 24-51, looked up) [DAG, non-octanoylated form of ghrelin; purchased from Tocris (printed Tocrise Bioscience), dissolved in 0.9% NaCl]", "values": [
      {"measurement": "locomotor activity, DAG per se", "setting": "male and female rats; female rats", "result": "did not influence locomotor activity"},
      {"measurement": "locomotor activity, DAG per se", "setting": "male and female rats; male rats", "result": "did not influence locomotor activity"},
      {"measurement": "effects of ghrelin on feeding, gastric emptying, body temperature, glucose and lipid metabolism", "setting": "[1]; ref [30–34]", "result": "blocks the effects of ghrelin on feeding, gastric emptying, body temperature, and glucose and lipid metabolism"},
      {"measurement": "food intake", "setting": "[1]; ref [32]", "result": "decrease food intake"},
      {"measurement": "activation of CB1", "setting": "CB1 receptor", "result": "no activation"},
      {"measurement": "alcohol-induced locomotor stimulation (effect of DAG)", "setting": "male mice; DAG 0.5 mg/kg plus alcohol, n = 8 per group (vehicle-vehicle one removed)", "result": "reduced but did not block (P = 0.5319)"},
      {"measurement": "alcohol-induced locomotor stimulation (effect of DAG)", "setting": "male mice; DAG 1 mg/kg 15 min before alcohol 1.75 g/kg IP, n = 8 per group", "result": "prevented the alcohol-induced locomotor stimulation (P = 0.0305)"},
      {"measurement": "locomotor activity, DAG per se", "setting": "male mice; DAG 1 mg/kg without alcohol, n = 8 per group", "result": "did not alter the activity of the mice (P > 0.9999)"},
      {"measurement": "locomotor activity, DAG per se, dose finding", "setting": "male mice; DAG 0.25, 0.5 or 1.0 mg/kg, 60 min recording, n = 8 per group, data not shown", "result": "did not influence locomotor activity"}
    ]}
  ]
}
